{
  "source": "patent US11351347B2",
  "about": "“Vacuum-assisted drug delivery device and method” (VacuMed, LLC., priority 2014, dated 2022)",
  "test": "Vacuum-assisted trans-epithelial delivery of riboflavin into rabbit corneas, compared with standard delivery after epithelium removal",
  "type": "in vivo",
  "conditions": "trans-epithelial vacuum delivery through intact epithelium, varying application time periods; compared with standard method in which the epithelium is surgically removed",
  "procedure": "The device and method herein were tested to verify the effectiveness of the vacuum delivery system and to quantify concentrations of the standard formulation of riboflavin that is used in the process of cross-linking collagen corneal tissue in rabbit corneas. The tests employed the present invention to facilitate trans-epithelial delivery of riboflavin at varying application time periods, and compare the concentrations achieved with the concentration of riboflavin achieved through the standard method of riboflavin delivery (i.e., in which the epithelium is surgically removed). […] In other embodiments, high levels of vacuum, higher riboflavin concentrations, and the use of penetration enhancers may be used to increase the amount of riboflavin diffusion into the cornea per unit time. These animal studies clearly provide a proof of principle for the efficacious delivery of riboflavin into the cornea, through an intact epithelium, using the device and method of this invention. These studies also provide critical concentration/treatment time data for utilizing this invention.",
  "data": [
    {"compound": "Cc1cc2nc3c(=O)[nH]c(=O)nc-3n(C[C@H](O)[C@H](O)[C@H](O)CO)c2cc1C", "note": "[riboflavin]", "values": [
      {"measurement": "riboflavin delivery to the cornea (concentration achieved)", "value": "equivalent to the effect of removing the corneal epithelium"}
    ]}
  ]
}
